Measured values published in ChEMBL document CHEMBL5226379, “Hypouricemic Actions of the Pericarp of Mangosteen in Vitro and in Vivo” (J Nat Prod, 2023).

Key:
Rattus norvegicus = assay: Anti-hyperuricemic activity against potassium oxonate-induced hyperuricemic Sprague-Dawley rat model assessed as ratio of urinary urate to urinary creatinine at 4 mg/kg, po pre-administered via gavage twice daily for 5 times followed by potassium oxonate injection for 1 hrs prior to last dose and measured after 3 hrs; format: functional; settings: time 123 hrs
Mus musculus = assay: Hypouricemic activity in potassium oxonate-induced hyperuricemic Kunming mouse model assessed as decrease in serum uric acid level pre-administered intragastrically via gavage twice daily for 5 times followed by potassium oxonate injection for 1 hrs prior to last dose by phosphotungstic acid method; format: functional, organism-based; settings: dose 1-4 mg/kg, time 5.0 day

COc1c(O)cc2oc3cc(O)c(CC=C(C)C)c(O)c3c(=O)c2c1CC=C(C)C [MANGOSTIN]
Ratio (Rattus norvegicus): 2.9
Activity (Mus musculus): Dose-Dependent Effect
